Article PMC8124269 (Molecules, 2021)
Entries after “also recorded” stand apart in the source; their conditions may differ. Read-outs that look alike come from different tables or passages of the source.

Key:
SARS-CoV-2 [1] = test: microbe, parasite or virus in culture; type: cell-based; conditions: for effect on viral replication: infected Vero E6 cells, MOI 0.01, 48 and 72 hpi
COX = conditions: cited from earlier work; for COX Inhibition: which COX is inhibited, ref 11 (given for naproxen A and C0)
[2] = system: N NTD oligomerization induced by 48-mer DNA; type: biochemical; conditions: for Oligomer Size (hydrodynamic diameter Dh of DNA-NTD complex) / Oligomer Inhibition/Enhancement: NTD (60 µM) monomer, [compound] = 37.5 µM, [48-mer] = 29.4 µM; for Oligomer Size (hydrodynamic diameter Dh of DNA-NTD complex): 20 °C, without ligand 15.7 ± 0.7
viral 3C-like protease = conditions: cited from earlier work
SARS-CoV-2 in nasal HAE = conditions: 90 µM or 300 µM, postinfection treatment, 48 hpi
Influenza A virus = conditions: cited from earlier work
in vitro = conditions: African green monkey
SARS-CoV-2 [3] = system: SARS-CoV-2; design: method as in PMID 33441348; conditions: cited from earlier work
wild type N-NTD = system: wild type N-NTD; design: method as in PMID 22272272; conditions: hexachlorofluorescein labeled ssRNA titrated with N-NTD; read-out: KD of RNA binding to N-NTD; cited from earlier work
[4] = biological target: SARS-CoV-2 N-NTD (monomer) with labeled 10-mer RNA (Severe acute respiratory syndrome coronavirus 2, UniProt P0DTC9); test: biochemical; conditions: read-out: N Binding, Fluo Anisotropy (KD, displacement of RNA)
[5] = Cytotoxicity in Vero E6 cells; conditions: African green monkey
[6] = Vero E6, MOI 0.01, treatment 1 hpi

In the case of `COc1ccc2cc([C@H](C)C(=O)O)ccc2c1` [Naproxen, naproxen], the IC50 (SARS-CoV-2 [1]; Severe acute respiratory syndrome coronavirus 2, Vero C1008, Vero E6, MOI 0.01, unique treatment at 1 hpi, 48 hpi) is reported as 46.1 µM, the IC50 (SARS-CoV-2 [1]; Severe acute respiratory syndrome coronavirus 2, Vero C1008, Vero E6, MOI 0.01, unique treatment at 1 hpi, 72 hpi) is reported as 59.5 µM and the IC50 (SARS-CoV-2 [1]; Severe acute respiratory syndrome coronavirus 2, Vero C1008, read-out: Mean IC50 (viral replication), Vero E6, MOI 0.01, treatment 1 hpi) is reported as 50 ± 10 µM. The IC50 (SARS-CoV-2 [1]; read-out: Mean IC50 (viral replication), Vero E6, MOI 0.01, treatment 1 hpi) was 52 ± 6 µM, the “COX Inhibition” value (COX) was “COX1 + COX2” and the “Oligomer Size (hydrodynamic diameter Dh of DNA-NTD complex)” value [2] was 7.9 ± 0.3 nm. The IC50 (viral 3C-like protease) was 3.45 µM, the “antiviral effect versus mock-treated control” value (SARS-CoV-2 in nasal HAE) was “did not show an antiviral effect” and the IC50 (Influenza A virus; MOI = 10^−2) was 25 ± 7 µM.

For `COc1ccc2cc(C(CCC(=O)O)C(=O)O)ccc2c1` (stereo not drawn) [Naproxen A], the “Mean IC50 (viral replication)” value (SARS-CoV-2 [1]; [6]) is listed as “No inhibition”, the “effect on viral replication” value (SARS-CoV-2 [1]) is listed as “did not reduce viral replication” and the “ability to inhibit COX” value (COX) is listed as “lacked the ability to inhibit COX”. The “Oligomer Size (hydrodynamic diameter Dh of DNA-NTD complex)” value [2] was 16.0 ± 0.8 nm, the CC50 (in vitro) was over 1000 µM and the CC50 at 48 h post infection (in vitro) was over 1000 µM. For the same molecule, the CC50 at 72 h post infection (in vitro) was over 1000 µM and the “antiviral effect against Influenza A virus” value (Influenza A virus) was “no antiviral effect”.

For `Cc1cnc(NC(=O)C2=C(O)c3ccccc3S(=O)(=O)N2C)s1` [meloxicam], the “effect on SARS-CoV-2 entry or replication in vitro” value (SARS-CoV-2 [3]) is given as “did not affect SARS-CoV-2 entry or replication in vitro”.

In the case of “10-mer RNA: fluorescently labeled RNA UCUCUAAACG labeled with 5′-hexachlorofluorescein”, the Kd (wild type N-NTD) is given as 8.3 ± 0.8 µM.

With `COc1ccc2cc(-c3c(C(=O)O)cccc3C(=O)O)ccc2c1` [Naproxen C0] the IC50 (SARS-CoV-2 [1]; Severe acute respiratory syndrome coronavirus 2, Vero C1008, Vero E6, MOI 0.01, treatment 1 hpi, read-out: Mean IC50 (viral replication)) was 75 ± 25 µM, the IC50 (SARS-CoV-2 [1]; Severe acute respiratory syndrome coronavirus 2, Vero C1008, Vero E6, MOI 0.01, unique treatment at 1 hpi, 48 hpi, read-out: IC50) was 101 µM and the IC50 (SARS-CoV-2 [1]; Severe acute respiratory syndrome coronavirus 2, Vero C1008, Vero E6, MOI 0.01, unique treatment at 1 hpi, 72 hpi, read-out: IC50) was 45.1 µM. For the same molecule, the IC50 (SARS-CoV-2 [1]; Vero E6, MOI 0.01, treatment 1 hpi, read-out: Mean IC50 (viral replication)) was 73 ± 25 µM, the “ability to inhibit COX” value (COX) was “lacked the ability to inhibit COX” and the Kd [4] was 1.6 µM. The “Oligomer Size (hydrodynamic diameter Dh of DNA-NTD complex)” value [2] was 12.7 ± 0.7 nm, the CC50 (in vitro) was over 1000 µM and the CC50 at 48 h post infection (in vitro) was over 1000 µM. For the same molecule, the CC50 at 72 h post infection (in vitro) was over 1000 µM.

In the case of `Cc1ccc(-c2cc(C(F)(F)F)nn2-c2ccc(S(N)(=O)=O)cc2)cc1` [Celecoxib], the “Mean IC50 (viral replication)” value (SARS-CoV-2 [1]; [6]) is given as “proviral”, the “effect on viral replication” value (SARS-CoV-2 [1]) is given as “No inhibition of viral replication; also recorded: did not present a clear antiviral effect” and the “COX Inhibition” value (COX) is given as “COX2”. For the same molecule, the CC50 [5] was 80 µM, the CC50 at 48 h post infection [5] was 83 µM and the “Oligomer Inhibition/Enhancement” value ([2]; listed as celecoxib) was “enhanced the formation of large species”. For the same molecule, the “Oligomer Size, large particles formed” value ([2]; compound in DMSO, compared to N + DMSO (12 nm)) was “^7 Formation of large particles of 3 µm as compared to N + DMSO (12 nm)”.

For `CC(=O)Nc1ccc(O)cc1` [Acetaminophen (paracetamol), Acetaminophen], the “Mean IC50 (viral replication)” value (SARS-CoV-2 [1]; [6]) is given as “No inhibition”, the “effect on viral replication” value (SARS-CoV-2 [1]) is given as “No inhibition of viral replication; also recorded: mainly not affecting viral replication” and the “COX Inhibition” value (COX) is given as “COX1 + COX2 ? ^1”. It also gave a CC50 [5] of over 400 µM, a CC50 at 48 h post infection [5] of over 400 µM and a CC50 at 72 h post infection [5] of over 400 µM. The “Oligomer Inhibition/Enhancement” value [2] was “did not modify NTD oligomerization” and the “Oligomer Size (hydrodynamic diameter Dh of DNA-NTD complex)” value [2] was 14.0 ± 1.0 nm.

For `CC(C)Cc1ccc(C(C)C(=O)O)cc1` (stereo not drawn) [ibuprofen], the “effect on SARS-CoV-2 entry or replication in vitro” value (SARS-CoV-2 [3]) is given as “did not affect SARS-CoV-2 entry or replication in vitro”.
